Patent US20040167170A1, “Methods of preventing breast cancer” (priority 1996, published 2004)

How the values were obtained:
Format in all cases: in vivo, human
[1] = test system: breast cancer in postmenopausal women; assay: Phase III double-blind placebo-controlled raloxifene trials, all placebo-controlled studies combined: incidence of breast cancer; conditions: for Relative Risk (Raloxifene to Placebo) of breast cancer / Raloxifene Cases n/N (%): all raloxifene doses pooled; for Raloxifene Cases n/N (%): N estimated
From the text: (§1) As support for the utility of the current invention, the interim safety results of Phase III clinical trials with raloxifene are presented, below.
(§2) The majority of cases of breast carcinoma have occurred in the large, ongoing osteoporosis treatment study of 7704 postmenopausal women with established osteoporosis. However additional cases have been reported in smaller studies of postmenopausal women at risk for osteoporosis. The studies reported herein are double-blind and placebo-controlled; most have durations of approximately three years and were designed to determine the efficacy of raloxifene to prevent or treat osteoporosis in postmenopausal women. In addition, the studies provide information on the status of cardiovascular health and other major medical conditions (including the incidence of breast carcinoma). Patients were randomly assigned to receive either placebo, 30 mg, 60 mg, 120 mg or 150 mg of drug per day, orally. All patients and investigators are blinded to study drug assignment (double-blind design). All patients in all groups received daily calcium supplements of approximately 500 mg/day. In addition, patients in the large, 7704-patient treatment study received Vitamin D supplements, 400-600 IU/day.
(§3) Subjects selected for these studies are postmenopausal women (at least 2 years from the time of the last menstrual period), ages range from approximately forty-five to eighty years.
(§4) Typical exclusion criteria from participation in these studies included: l)the presence of serious systemic disease, 2)acute or chronic liver disease, 3)substantially impaired kidney function, 4)subjects who, in the opinion of the investigator, have poor medical or psychiatric risk factors for inclusion in a clinical trial, e.g., drug or alcohol abuse, etc. 5)subjects with any history of cancer within five years of entry into the study, with the exception of superficial lesions, e.g., basal cell carcinoma of the skin 6)the presence of abnormal uterine bleeding. Most important of the exclusion criteria was the exclusion of women with present or past personal history of breast cancer or other estrogen-dependent neoplasia. These exclusion criteria generate a population of subjects which reflects the general population in regard to the risk of developing breast carcinoma, or in other words, those persons at no particular increased risk of developing breast cancer.
(§5) Potential subjects were screened prior to enrollment into the study. Subjects were required to reveal their medical histories and current medical conditions. All potential patients were required either to have a baseline mammogram or ultrasound evaluation of the breast, or to have had one of these procedures in the 12-month period preceding study entry. In most studies, a two-year follow-up mammogram is required; however, annual mammograms are recommended. All subjects with diagnosed and reported carcinomas of the breast were required to discontinue immediately from study participation, and were referred by the site investigator for appropriate oncologic evaluation and care.
The overall ratio of treatment assignments for randomized patients (raloxifene to placebo) is approximately 2:1.
(§6) The results shown in Tables 1-4 are for subjects with histopathologic diagnoses of carcinoma of the breast. The data include results from optional one year mammograms, as well as the required baseline and two year follow-up mammograms. Once a diagnosis of breast cancer was made, these subjects were discontinued from the study and their status decoded to reveal the therapy (arm) to which they been assigned (i.e. what study drug they had received).
(§7) For the studies reported in this invention, the number of patients randomly assigned to receive placebo is approximately 3195. The number of patients randomly assigned to receive raloxifene (all doses combined) is approximately 6681. […] Table 1 presents the results for all placebo-controlled studies, with data for all doses of raloxifene pooled. […]

postmenopausal women = assay: Integrated safety analysis of Phase III clinical trials of raloxifene for prevention or treatment of osteoporosis; conditions: all doses integrated; more than 12,850 patient-years of exposure; nearly 3 years of clinical experience
From the text: Because the goal of disease prevention is to protect women from the carcinogenic event (or the occurrence of precancerous lesions) and the subsequent promotion or progression to invasive disease (cancer), prolonged use of a preventive therapeutic agent is necessary (Kelloff et.al. Approaches to the Development and Marketing Approval of Drugs that Prevent Cancer, Cancer Epidemiology, Biomarkers & Prevention, vol 4, pp.1-10, 1995). […] Raloxifene has been studied in more than 12,000 subjects. Extensive integrated data from Phase III clinical trials of raloxifene for the prevention or treatment of osteoporosis in postmenopausal women, has been analyzed for safety. When all doses of raloxifene are integrated, this analysis has included more than 12,850 patient-years of exposure to raloxifene.

[2] = test system: breast cancer in postmenopausal women with established osteoporosis; assay: Large (7704-patient) osteoporosis treatment study of postmenopausal women with established osteoporosis: incidence of breast cancer; conditions: for Relative Risk (Raloxifene to Placebo) of breast cancer / Raloxifene Cases n/N (%): 60 and 120 mg/day; for Raloxifene Cases n/N (%): N estimated
From the text: as §1, §2, §3, §4, §5, §6, §7

[3] = 1-Year Follow-up mammograms (6-18 months)
[4] = 2-year Follow-up mammograms (18-30 months)
[5] = Baseline mammograms (1-6 months)
[6] = diagnosis at least 1 month after therapy assignment
[7] = diagnosis at least 12 months after therapy assignment
[8] = vs placebo, cases at least 12 months after randomization
[9] = vs placebo, diagnosed at least one month after random assignment

## O=C(c1ccc(OCCN2CCCCC2)cc1)c1c(-c2ccc(O)cc2)sc2cc(O)ccc12 [Raloxifene]
[1]; [3]
  Raloxifene Cases: 7
  Relative Risk of breast cancer: 0.56
[1]; [4]
  Raloxifene Cases: 5
  Relative Risk of breast cancer: 0.15
[1]; [5]
  Raloxifene Cases: 5
  Relative Risk of breast cancer: 1.20
[1]; [6]
  Relative Risk (Raloxifene to Placebo) of breast cancer: 0.36
  Raloxifene Cases n/N (%): 18/6681
[1]; [7]
  Relative Risk (Raloxifene to Placebo) of breast cancer: 0.23
  Raloxifene Cases n/N (%): 10/6681
[1]; placebo-controlled trials of at least 6 months duration, more than 1-month of treatment, raloxifene to placebo approximately 2:1
  breast cancer cases reported in the raloxifene treatment groups: 18 cases
[1]; [8]
  decrease in the incidence of breast cancer: 77%
[1]; [9]
  decrease in the rate of breast cancer: 64%
Postmenopausal women
  tolerability / safety: extremely well-tolerated
[2]; [3]
  Raloxifene Cases: 4
  Relative Risk of breast cancer: 0.33
[2]; [4]
  Raloxifene Cases: 3
  Relative Risk of breast cancer: 0.12
[2]; [5]
  Raloxifene Cases: 5
  Relative Risk of breast cancer: 1.25
[2]; [6]
  Relative Risk (Raloxifene to Placebo) of breast cancer: 0.29
  Raloxifene Cases n/N (%): 12/5317
[2]; [7]
  Relative Risk (Raloxifene to Placebo) of breast cancer: 0.14
  Raloxifene Cases n/N (%): 5/5317
[2]; [8]
  decrease in the incidence of breast carcinoma: 86%
[2]; [9]
  decrease in the rate of breast cancer: 71%
